These results are taken from patent US12612403B2, “Nitrogen-containing heterocyclic derivative inhibitor, and preparation method therefor and use thereof” (SHANGHAI HANSOH BIOMEDICAL CO., LTD., priority 2024, dated 2026).

Series [1] in a line: In vitro metabolic stability in human liver microsomes. The class given is in vitro ADME. The settings on record: pH 7.4. As to the method:
1. Experimental objective: The purpose of this experiment was to evaluate the metabolic stability of the compounds in phase I and partially phase II in mouse, rat and human liver microsomes, respectively.
2.1 Drug preparation: 10 mM stock solution of the compound of the present disclosure was prepared in DMSO (or other suitable solution) and stored in a −20° C. refrigerator for later use. The compound of the present disclosure was made in house.
2.2 Experimental steps • 1) Preparation of buffer: 4.01 mL of 1 M K2HPO4·3H2O (AR grade) and 0.99 mL of 1 M KH2PO4 (AR grade) were dissolved in ultrapure water and the volume was adjusted to 50 mL to prepare a phosphate buffer with a final concentration of 100 mM. • 2) Preparation of compound working solution: Preparation of compound working solution: 2 μL of the compound stock solution was added to 998 μL of phosphate buffer to a final concentration of 20 μM. According to the properties of the compound, the preparation proportions could be adjusted appropriately to adjust the final concentration. • 3) Preparation of liver microsome working solution: 156.3 μL of 20 mg/mL microsomes were diluted to 5 mL with 100 mM phosphate buffer, and the mixture was mixed well to reach a final concentration of 0.625 mg/mL. • 4) Preparation of NADPH and UDPGA: 33.3 mg of NADPH and 25.8 mg of UDPGA were weighed and added to 2 mL of 100 mM phosphate buffer to reach a final concentration of 20 mM. • 5) Preparation of pore-forming agent (Alamethicin): 1 mg of Alamethicin was weighed and added to 200 μL of methanol to prepare a 5 mg/mL solution. 10 μL of the solution was taken and added to 990 μL phosphate buffer (pH 7.4) to reach a final concentration of 50 μg/mL. • 6) Preparation of reaction stop solution: The internal standard was diluted with acetonitrile (or other suitable solution) to use as a stop solution and stored in a 2° C.-8° C. refrigerator. • 7) Incubation process: 400 μL of the prepared liver microsomes, 25 μL of the compound working solution (20 μM) and 25 μL of Alamethicin (50 μg/mL) were successively added to the 96-well plate, and the mixture was pre-incubated at 37° C. for 10 min. Then, 50 μL of prepared NADPH/UDPGA was added to start the reaction, and the mixture was incubated at 37° C. The total volume of the reaction system was 500 μL. The final contents of each component were as follows:
50 μL of samples were taken at 0, 5, 15, 30, 60 and 120 min, respectively, 200 μL of a cold stop solution containing the internal standard was added to stop the sample reaction, the mixture was centrifuged at 3500 rpm for 10 min, and the supernatant was taken and analyzed by LC-MS/MS.
Instruments: Shimadzu LC-20 AD; Chromatographic column: Phenomenex Gamin® C18 (50*4.6 mm, 5 μm particle size); mobile phase: A: 0.1% aqueous formic acid, B: acetonitrile; Elution gradient: 0.2-1.6 min, […], 3.0-3.1 min, 95% A to 5% A; Flow rate: 1.0 ml/min; Run time: 4.0 min; Injection volume: 5 μL.
Instruments: AP14000 liquid chromatography mass spectrometer, AB Sciex; Ion source: electrospray ionization source (ESI); Drying gas: N2, temperature 500° C.; Electrospray voltage: 5000 V; Detection mode: positive ion detection; Scanning mode: Reaction Monitoring (MRM) mode; Scanning time: 0.8401 s.
3. Data processing: The raw data were calculated according to the following formula: […]
The in vitro liver microsome intrinsic clearance rate (CLint) and liver intrinsic clearance rate (CLint,liver) were calculated by Ke.
(In general: Liver microsomes are vesicles of endoplasmic reticulum, rich in cytochrome P450 enzymes.)

The test system of series [2] is hyperlipidemia animal model of B6-hPCSK9 transgenic mice. Nature of the series: In vivo pharmacodynamic study in hyperlipidemia model of B6-hPCSK9 transgenic mice (LDL-C, TC, plasma PCSK9). The arrangement: species or system B6-hPCSK9 transgenic C57 mice. The note with it: PO administration, 10 mpk, Day 14, B6-hPCSK9 transgenic mice on high-fat feed, normalized to vehicle group. How it is done:
1. Experimental objective: The compounds of the present disclosure were evaluated for in vivo pharmacodynamics in a hyperlipidemia animal model of B6-hPCSK9 transgenic mice.
2.1 Animals: B6-hPCSK9 transgenic C57 mice, 6-8 weeks old, male, purchased from Jiangsu GemPharmatech Co., Ltd.
2.2 Animal model: After delivery to a barrier system, the animals were given one week for acclimatization and began to feed on the high-fat feed. The body weight and feed weight were weighed once a week, and the body weight and food intake thereof were recorded.
2.3 Grouping and administration • a. The animals were grouped by a random grouping method. • c. According to the grouping results, administration with the test drug was started (mode of administration: oral administration; administration volume: 10 mL/kg; frequency of administration: once/day or single administration; administration cycle: 21 days; vehicle: 10% Solutol HS 15/90% Saline). Test drug: Compounds of the present disclosure, made in house. • d. After the test drug was administered, the body weight and feed weight were weighed twice a week and blood was taken once a week. • e. The data was processed with software such as Excel. […] PCSK9 in plasma was detected by ELISA.

A word on the half-life: it is how long it takes for the measured level to halve. Lower therefore signals rapid decline. A word on the microsomal CLint: it is a measure of how fast metabolising enzymes remove a compound, apart from limits set by blood flow. A lower microsomal CLint goes with slow turnover. In series [1], `O=c1nc(O)ccn1-c1ccc(N[C@H]2CC[C@H](Nc3nc4cc(C(F)(F)F)ccn4n3)C2)nc1` [Example 78, 4-hydroxy-1-(6-(((1S,3S)-3-((7-(trifluoromethyl)-[1,2,4]triazolo[1,5-a]pyridin-2-yl)amino)cyclopentyl)amino)pyridin-3-yl)pyrimidin-2(1H)-one] came in with a half-life at 1 µM of 13.2 h and a microsomal CLint at 1 µM of 1.75 µL/min/mg. Further, the “LDL-C change vs vehicle (%), Day 14” value in series [2] is on record as −37.98%.
Take `O=C1c2ncccc2CN1c1cnc(N[C@H]2CC[C@H](Nc3nc4cc(OC(F)F)ccn4n3)C2)c(F)c1` [Example 151]: in series [1], the half-life at 1 µM turned out to be 11.8 h and the microsomal CLint at 1 µM came out at 1.9 µL/min/mg. Besides, the “LDL-C change vs vehicle (%), Day 14” value in series [2] was −31.09%.
In series [1], `O=c1nc(O)ccn1-c1cnc(N[C@H]2CC[C@H](Nc3nc4cc(C(F)(F)F)ccn4n3)C2)c(F)c1` [Example 183] yielded a half-life at 1 µM of 23 h and a microsomal CLint at 1 µM of 1 µL/min/mg. The “LDL-C change vs vehicle (%), Day 14” value in series [2] is reported as −48.90%.
